Experimental data published in US8680142B2, “Ascorbate, vitamin K3 and hydroxytolans in the treatment of cancer” (Kent State University, priority 2007, dated 2014).
Like-named read-outs stand apart in the source and are kept apart here.

Legend:
[1] = cited from earlier work
[2] = system: normal cells; settings: cited from earlier work
[3] = system: hepatoma; settings: 10 mg/2 mL i.p. weekly for 4 weeks, cited from earlier work
[4] = system: tumor growth; settings: cited from earlier work
[5] = system: advanced lung cancer patients; settings: VK3 with mitomycin C, cited from earlier work
[6] = system: gastrointestinal cancer patients; settings: 43 patients; VK3 with mitomycin C; cited from earlier work
[7] = system: livers of nude mice; settings: appreciably larger doses of VK3; cited from earlier work
[8] = system: humans; settings: cited from earlier work
[9] = system: T24 Human Bladder Cancer Cells; test: MTT cytotoxicity assay against T24 cells; format: cell-based; settings: for IC50: Homo sapiens; for increase of cytotoxic potency in the combination over compound alone: VC/HT-1 200:1 after VC+VK3 pretreatment
Method: After 1 or 2 days of incubation at 37° C. in humidified CO2 in air, a colorimetric MTT assay (see below) was performed to evaluate the number of remaining viable T24 cells in each well.
The hydroxytolan HT-1 was dissolved in DMSO as 2 mM stock and was then subsequently diluted in MEM so that the final DMSO concentration in any well was <1%. Doubling dilutions of this stock solution were carried out as above.
This assay measures the formation of a colored product produced from a chromogenic substrate, the tetrazole 3-[4,5-dimethylthiazol-2-yl]-2,5 diphenyltetrazolium bromide (“MTT”). The yellow MTT is reduced to purple formazan in the mitochondria of living cells. A solubilization solution (typically dimethyl sulfoxide or sodium dodecyl sulfate (SDS) in dilute hydrochloric acid) is added to dissolve the insoluble purple formazan product into a colored solution. The absorbance of this colored solution is quantified by measuring at a certain wavelength (usually between 500 and 600 nm) by a spectrophotometer. […] This MTT assay is used widely to assess the cytotoxicity and selectivity of compounds such as anti-cancer drugs. The assay is suitable for rapid toxicity characterization of a test agent such as a drug formulation.
A lower CD50 indicates a greater cytotoxic activity (as a lower amount of the agent is needed to achieve a fixed level of cytotoxicity). Two agents can be compared by examining the fold-increase or decrease in their CD50 values.
The CD50 values were interpolated from the curves generated using 12 serial dilutions. When individual compounds were used a single CD50 value is shown. When a combination of two compounds was used, the CD50 of both compounds is presented. Values shown are the mean±standard error of three experiments with six readings per experiment.

[10] = system: terminal cancer patients; settings: cited from earlier work
[11] = system: patients with advanced cancer; settings: 10 g oral VC; double-blind, placebo-controlled; cited from earlier work
[12] = system: Mice; settings: daily 6.5 g/Kg for 6 weeks and 2 g/Kg for 2 years; cited from earlier work
[13] = T-24, 24 h, incubation time 1 day, compound alone, read-out: CD50 of compounds tested Individually
[14] = T-24, 48 h, incubation time 2 days, compound alone, read-out: CD50 of compounds tested Individually
[15] = T-24, read-out: CD50 of each compound tested in combination after pretreatment with VC and VK3, incubation time 1 day, VC:HT-1 200:1 mixture, 2 h pretreatment with 150 μM VC and 1.5 μM VK3
[16] = T-24, read-out: CD50 of each compound tested in combination after pretreatment with VC and VK3, incubation time 2 days, VC:HT-1 200:1 mixture, 2 h pretreatment with 150 μM VC and 1.5 μM VK3

For `Oc1ccc(/C=C/c2cc(O)cc(O)c2)cc1` [resveratrol, 3,5,4′-trihydroxy-trans-stilbene], the aqueous solubility [1] is listed as “relatively low aqueous solubility” and the “toxicity to normal cells” value [2] is listed as “significantly toxic to normal cells”.

For `CC1=CC(=O)c2ccccc2C1=O` [VK3, 2-methyl-1,4-naphthoquinone], the long term survivors [3] is given as 5 out of 16, the survival ([3]; controls 17 days) is given as 60 days and the “inhibition of tumor growth” value ([4]; VK3 225 mg/kg/day with methotrexate) is given as 84%. For the same compound, the “inhibition of tumor growth” value ([4]; menadione 250 mg/kg/day with methotrexate 0.75 mg/kg/day) was 99%, the median survival ([5]; 23 patients) was 5.5 months and the “patients with hematologic toxicity” value [5] was 30%. The “patients with some tumor regression” value [5] was 26%, the objective response [6] was “no objective response” and the hepatotoxicity [7] was “no hepatotoxicity”. For the same compound, the water solubility ([1]; bisulfate form) was “water soluble”, the maximum tolerated dose ([8]; 48-hour i.v. infusion, followed by mitomycin C every four weeks) was 2.5 g/m^2 and the toxicity ([8]; 400-500 mg/day over 3-5 consecutive days) was “without any appreciable toxicity”. The hemolysis ([8]; VK3 2.5 g/m^2 then mitomycin C 15 mg/m2 every four weeks) was “no hemolysis”.

`O=C1O[C@H]([C@@H](O)CO)C([O-])=C1O.[Na+]` [VC, sodium ascorbate] showed an IC50 [9, 13] of 849 µM, an IC50 [9, 14] of 896 ± 59.8 µM and an IC50 [9, 15] of 226 µM. The IC50 [9, 16] was 187 ± 99 µM, the “mean survival time (MST)” value ([10]; 100 terminal cancer patients, 10 g/day i.v. for 10 days, then 10 g/day orally, controls 50 days) was > 210 days and the “MST, ovarian cancer subjects” value ([10]; six treated subjects with ovarian cancer, controls 71 days) was 148 days. For the same compound, the “effectiveness of oral VC” value [11] was “no benefits” and the “mortality, weight changes, blood chemistry, hematology, histology, other pathologies” value [12] was “no abnormal rates”.

In the case of `Oc1ccc(C#Cc2ccc(O)cc2)cc1` [HT-1, 4,4′-dihydroxytolan], the IC50 [9, 13] is reported as 21.5 µM, the IC50 [9, 14] is reported as 10.5 ± 2.7 µM and the IC50 [9, 15] is reported as 1.13 µM. For the same compound, the IC50 [9, 16] was 0.94 ± 0.55 µM, the “increase of cytotoxic potency in the combination over compound alone” value ([9]; after 1 day) was “about 19 fold” and the “increase of cytotoxic potency in the combination over compound alone” value ([9]; after 2 days) was “about 11 fold”.
